Measured values: patent US7744860B2, “Reduced bioirritant composition” (Minu LLC, priority 1999, dated 2010)
Several values for one entry are separate records, joined by “and”; a condition that tells them apart may be missing. Equal values may be shown once. Entries after “also recorded” stand apart in the source; their conditions may differ.

Legend:
[1] = system: corneal neovascularization; experiment: silver nitrate cauterization induced corneal neovascularization, topical treatment; format: in vivo, male Long Evans pigmented rats; details: for Degree of Corneal Neovascularization, OD / Degree of Corneal Neovascularization, OS / mean inhibition of neovascularization / mean percent of neovascularization relative to total corneal area: topical twice a day for seven days; for Degree of Corneal Neovascularization, OD / Degree of Corneal Neovascularization, OS: individual subjects
Experimental: Neovascularization was induced in all eyes using silver nitrate cauterization. The animals were first anesthetized by intraperitoneal injection of a mixture of ketamine hydrochloride (25 mg/kg) with xylazine hydrochloride (5 mg/kg). The cornea was then anesthetized by a drop of 0.5% proparacaine hydrochloride and allowed to dry. One cornea of each animal was cauterized by pressing an applicator stick (diameter of 1.8 mm) coated with 75% silver nitrate/25% potassium nitrate (Arzol Chemical Co., Keen, N.H.) to the central cornea for ten seconds (using a stopwatch) under the operating microscope. Excess silver nitrate was removed by rinsing the eyes with 5 ml balanced salt solution. To increase the reproducibility of the injuries, one investigator cauterized all animals. Following cauterization, the animals were randomly divided into six groups to eliminate any potential bias in the degree of burns within the different groups. Two drops of each drug were applied topically to each cornea immediately following cauterization; treatments were administered two times per day for seven days.
Group 1 (number of animals (n)=8) received 100 mg/ml pH non-neutralized ascorbic acid. All remaining experimental groups received ascorbic acid neutralized to about pH 7 as previously described in the following concentrations: Group 2 (n=8) received 100 mg/ml (10%^w/v) neutralized ascorbic acid; Group 3 (n=8) received 50 mg/ml (5%^w/v) neutralized ascorbic acid; Group 4 (n=8) received 10 mg/ml (1%^w/v) neutralized ascorbic acid; Group 5 (n=8) received 5 mg/ml neutralized ascorbic acid (0.5%^w/v); Group 6 (n=8) received 1 mg/ml neutralized ascorbic acid (0.1%^w/v); Group 7 (n=8) received 500 μg/ml neutralized ascorbic acid (0.05%^w/v); Group 8 (n=8) received 250 μg/ml neutralized ascorbic acid (0.025%^w/v). Group 9 (n=8) received two drops of saline and served as the control. All concentrations of ascorbic acid were titrated with saline.
The presence of new vessels (neovascularization) and the extent of new vessel formation was assessed by slit lamp photography and in some embodiments, by histology. Inhibition of vessel proliferation was evaluated by measuring vessel progression from the outer cornea (corneal limbus) into the cornea. As previously described, it will be appreciated that any reduction of new vessel proliferation and/or regression of existing vessels is therapeutic, and that complete inhibition and/or regression is not required, and also that reduction includes regression of existing vessels.
All animals were anesthetized as described above and their corneas evaluated by slit-lamp microscopy on the third and sixth days. Corneal photographs were taken with ×25 magnification using a camera attached to the slit-lamp microscope (Topcon SL-7E, Tokyo Japan) on the seventh day. Neovascularization was evaluated by an examiner who was blinded as to the treatment groups to minimize the observer bias.
Corneal neovascularization was assessed by scanning (Cano scan 9900F, Canon, Tokyo Japan) the slit lamp photographs into high resolution digital images. The corneal surface covered with neovascular vessels was measured on the photographs as the percentage of the total area of the cornea. The percentage area of corneal neovascularization was determined by outlining the areas with corneal vessels and comparing these to the total corneal surface using image j software (Wayne Rasband at the Research Services Branch,-National Institute of Mental Health, Bethesda Md.). The area of neovascularization was measured in terms of pixels and its ratio to the entire corneal area was determined as the percentage of corneal neovascularization. The extent of the scar was also evaluated by calculating the percentage of the corneal surface that was covered by the scar. A drawing of corneal blood vessels was made to compare with digital photos and ensure that no vascular area was omitted during calculation of percent area. […]

[2] = electroretinogram (ERG) after ascorbic acid administration; format: in vivo, Rats
Experimental: The effect of pH neutralized and non-neutralized ascorbic acid administered topically to eyes at various concentrations was determined. Rats were subject to induced corneal neovascularization as previously described and administered pH neutralized and non-neutralized ascorbic acid and saline (control) at the same concentrations as previously described. An electroretinogram (ERG) was performed to evaluate the eye's electrical responses to a flash of light using an electrode placed on the surface of the eye (e.g., cornea) as known to one skilled in the art.

[3] = 100 mg/ml, mean ± standard deviation, n = 8
[4] = 100 mg/ml, listed as pH neutralized ascorbic acid

O=C1O[C@H]([C@@H](O)CO)C(O)=C1O [Ascorbic Acid Non pH Neutralized, ascorbic acid, reference compound]
Degree of Corneal Neovascularization, OD ([1]; 100 mg (100 mg/ml)): 10% and 25% and 20% and 0%
Degree of Corneal Neovascularization, OS ([1]; 100 mg (100 mg/ml)): 33% and 30% and 22% and 0%
mean inhibition of neovascularization ([1]; 100 mg/ml): about 81%
mean percent of neovascularization relative to total corneal area [1, 3]: AVE = 17.5 ± 12.8% (n = 8)
mean percent of neovascularization relative to total corneal area ([1]; 100 mg/ml, mean ± standard deviation, n = 8, listed as ascorbic acid non-pH neutralized): about 19%
mean percent of neovascularization relative to total corneal area ([1]; 100 mg/ml, mean ± standard deviation, n = 8, listed as non-neutralized ascorbic acid): 17.5%
mean inhibition of neovascularization ([1]; 100 mg/ml, listed as non-neutralized ascorbic acid): 82.5%
decrease in ERG ([2]; 1 mg/ml, n=6): no significant decrease in ERG
decrease in ERG ([2]; 10 mg/ml, n=6): no significant decrease in ERG
decrease in ERG ([2]; 100 mg/ml, two eyes, listed as non-pH neutralized ascorbic acid): 60% and 70%
ocular findings (retinal detachment, cataracts, vitreous haze, retinal edema) ([2]; 100 mg/ml, listed as non-pH neutralized ascorbic acid): partial retinal detachment

O=C1O[C@H]([C@@H](O)CO)C(O)=C1O [Ascorbic Acid pH Neutralized, ascorbic acid]
Degree of Corneal Neovascularization, OD ([1]; 250 μg (250 μg/ml)): 68% and 69% and 70% and 61%
Degree of Corneal Neovascularization, OS ([1]; 250 μg (250 μg/ml)): 65% and 63% and 66% and 48%
mean inhibition of neovascularization ([1]; 250 μg/ml): about 33%
mean percent of neovascularization relative to total corneal area ([1]; 250 μg/ml, FIG. 2): about 67%
mean inhibition of neovascularization ([1]; 250 μg/ml, listed as neutralized ascorbic acid): differences were not significant
Degree of Corneal Neovascularization, OD ([1]; 500 μg (500 μg/ml)): 54% and 69% and 70% and 61%
Degree of Corneal Neovascularization, OS ([1]; 500 μg (500 μg/ml)): 50% and 63% and 66% and 48%
mean inhibition of neovascularization ([1]; 500 μg/ml): about 40%
mean percent of neovascularization relative to total corneal area ([1]; 500 μg/ml, mean ± standard deviation, n = 8): mean = 60.1 ± 8.5% (n = 8)
mean percent of neovascularization relative to total corneal area ([1]; 500 μg/ml, mean ± standard deviation, n = 8, listed as ascorbic acid pH neutralized): about 60%
mean percent of neovascularization relative to total corneal area ([1]; 500 μg/ml, mean ± standard deviation, n = 8, listed as neutralized ascorbic acid): 60.1%
mean inhibition of neovascularization ([1]; 500 μg/ml, listed as neutralized ascorbic acid): 39.9%
Degree of Corneal Neovascularization, OD ([1]; 1 mg (1 mg/ml)): 49% and 15% and 48% and 5%
Degree of Corneal Neovascularization, OS ([1]; 1 mg (1 mg/ml)): 47% and 27% and 29% and 17%
mean inhibition of neovascularization ([1]; 1 mg/ml): about 69%
mean percent of neovascularization relative to total corneal area ([1]; 1 mg/ml, mean ± standard deviation): mean = 29.6 ± 16.9%
mean percent of neovascularization relative to total corneal area ([1]; 1 mg/ml, mean ± standard deviation, listed as ascorbic acid pH neutralized): about 31%
mean inhibition of neovascularization ([1]; 1 mg/ml, listed as neutralized ascorbic acid): significant inhibition compared to control eyes
Degree of Corneal Neovascularization, OD ([1]; 5 mg (5 mg/ml)): 20% and 35% and 0% and 60%
Degree of Corneal Neovascularization, OS ([1]; 5 mg (5 mg/ml)): 60% and 26% and 30% and 0%
mean inhibition of neovascularization ([1]; 5 mg/ml): about 70%
mean percent of neovascularization relative to total corneal area ([1]; 5 mg/ml, mean ± standard deviation, n = 8): mean = 28.9 ± 23.1% (n = 8)
mean percent of neovascularization relative to total corneal area ([1]; 5 mg/ml, mean ± standard deviation, n = 8, listed as ascorbic acid pH neutralized): about 30%
mean inhibition of neovascularization ([1]; 5 mg/ml, listed as neutralized ascorbic acid): significant inhibition compared to control eyes
Degree of Corneal Neovascularization, OD ([1]; 10 mg (10 mg/ml)): 0% and 31% and 20% and 22%
Degree of Corneal Neovascularization, OS ([1]; 10 mg (10 mg/ml)): 0% and 27% and 15% and 26%
mean inhibition of neovascularization ([1]; 10 mg/ml): about 81%
mean percent of neovascularization relative to total corneal area ([1]; 10 mg/ml, mean ± standard deviation, n = 8): mean = 17.6 ± 11.9% (n = 8)
mean percent of neovascularization relative to total corneal area ([1]; 10 mg/ml, mean ± standard deviation, n = 8, listed as ascorbic acid pH neutralized): about 19%
mean inhibition of neovascularization ([1]; 10 mg/ml, listed as neutralized ascorbic acid): significant inhibition compared to control eyes
Degree of Corneal Neovascularization, OD ([1]; 50 mg (50 mg/ml)): 10% and 15% and 32% and 3%
Degree of Corneal Neovascularization, OS ([1]; 50 mg (50 mg/ml)): 5% and 35% and 22% and 0%
mean inhibition of neovascularization ([1]; 50 mg/ml): about 83.5%
mean percent of neovascularization relative to total corneal area ([1]; 50 mg/ml, mean ± standard deviation, n = 8): mean = 15.2 ± 13.3% (n = 8)
mean percent of neovascularization relative to total corneal area ([1]; 50 mg/ml, mean ± standard deviation, n = 8, listed as ascorbic acid pH neutralized): about 16.5%
mean inhibition of neovascularization ([1]; 50 mg/ml, listed as neutralized ascorbic acid): significant inhibition compared to control eyes
Degree of Corneal Neovascularization, OD ([1]; 100 mg (100 mg/ml)): 0% and 31% and 15% and 28%
Degree of Corneal Neovascularization, OS ([1]; 100 mg (100 mg/ml)): 54% and 5% and 3% and 0%
mean inhibition of neovascularization ([1]; 100 mg/ml): about 82%
mean percent of neovascularization relative to total corneal area [1, 3]: AVE = 17.0 ± 19.3% (n = 8)
mean percent of neovascularization relative to total corneal area ([1]; 100 mg/ml, mean ± standard deviation, n = 8, listed as ascorbic acid pH neutralized): about 18%
mean percent of neovascularization relative to total corneal area ([1]; 100 mg/ml, mean ± standard deviation, n = 8, listed as pH neutralized ascorbic acid): 17.0%
mean inhibition of neovascularization [1, 4]: 83.0%
inhibition of corneal neovascularization ([1]; concentrations ranging from 100 mg/ml to 500 μg/ml): significantly inhibited corneal neovascularization
decrease in ERG ([2]; 1 mg/ml, n=6): no significant decrease in ERG
decrease in ERG ([2]; 10 mg/ml, n=6): no significant decrease in ERG
decrease in ERG ([2]; 100 mg/ml, two eyes, listed as pH neutralized ascorbic acid): 100%
ocular findings (retinal detachment, cataracts, vitreous haze, retinal edema) [2, 4]: neither cataracts nor retinal detachment; also recorded: vitreous haze and retinal edema
